# Assay results from BindingDB's records for doi:10.1021/jm9604890 (University of Groningen, 1997).
# Experiment: Compound was tested for intrinsic efficacy against human 5-hydroxytryptamine 1D receptor alpha measured as the reduction of forskolin-stimulated cAMP.
row,SMILES,Ki
1,NCCc1c[nH]c2ccc(OS(=O)(=O)C(F)(F)F)cc12 [Trifluoro-methanesulfonic acid 3-(2-amino-ethyl)-1H-indol-5-yl ester],19 nM
2,CN(C)CCc1c[nH]c2ccc(OS(=O)(=O)C(F)(F)F)cc12 [Trifluoro-methanesulfonic acid 3-(2-dimethylamino-ethyl)-1H-indol-5-yl ester],30 nM
3,CCCN(CCC)CCc1c[nH]c2ccc(OS(=O)(=O)C(F)(F)F)cc12 [Trifluoro-methanesulfonic acid 3-(2-dipropylamino-ethyl)-1H-indol-5-yl ester],36 nM
